Where two headings read alike, the source gives them in different places.
Columns and labels:
Type in all cases: cell-based
CFTR [1] = target: T1, CFTR (Homo sapiens, UniProt P13569); assay: Membrane potential dye, Enteroid Assay A; settings: for Ent. A Max Activity: chloride transport as % of triple combination control (Enteroid Assay A); for EC50: read-out: Ent. A EC50
In short: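 % Activity: chloride transport relative to a 3 μM/3 μM corrector pair plus 300 nM acute potentiator control. Primary human enteroid cells, 18-24 h compound exposure at 37 °C; membrane potential dye (methyl oxonol) fluorescence over 15 min after forskolin (10 μM)/IBMX (100 μM)/Compound III (300 nM) stimulation in chloride-free buffer.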

F508del = target: T2, F508del (Homo sapiens, UniProt P13569, DEL508-508); assay: 3T3 assay: membrane potential optical assay for F508del correction; settings: F508del NIH 3T3 cells; for Emax: NIH3T3, compared to lumacaftor in combination with acutely added 300 nM Ivacaftor, read-out: 3T3 Max Activity; for EC50: 18-24 hours at 37° C., forskolin, acutely added 300 nM Ivacaftor
T2 construct: expressed in transfected cells
Text: 1. Membrane Potential Optical Methods for Assaying F508del Modulation Properties of Compounds
The assay utilizes fluorescent voltage sensing dyes to measure changes in membrane potential using a fluorescent plate reader (e.g., FLIPR III, Molecular Devices, Inc.) as a readout for increase in functional F508del in NIH 3T3 cells. The driving force for the response is the creation of a chloride ion gradient in conjunction with channel activation by a single liquid addition step after the cells have previously been treated with compounds and subsequently loaded with a voltage sensing dye.
2. Identification of Corrector Compounds
To identify correctors of F508del, a single-addition HTS assay format was developed. This HTS assay utilizes fluorescent voltage sensing dyes to measure changes in membrane potential on the FLIPR III as a measurement for increase in gating (conductance) of F508del in F508del NIH 3T3 cells. The F508del NIH 3T3 cell cultures were incubated with the corrector compounds at a range of concentrations for 18-24 hours at 37° C., and subsequently loaded with a redistribution dye. The driving force for the response is a Cl^− ion gradient in conjunction with channel activation with forskolin in a single liquid addition step using a fluorescent plate reader such as FLIPR III.
Bath Solution #1: (in mM) NaCl 160, KCl 4.5, CaCl2) 2, MgCl2 1, HEPES 10, pH 7.4 with NaOH.
Chloride-free bath solution: Chloride salts in Bath Solution #1 (above) are substituted with gluconate salts.
NIH3T3 mouse fibroblasts stably expressing F508del are used for optical measurements of membrane potential. The cells are maintained at 37° C. in 5% CO2 and 90% humidity in Dulbecco's modified Eagle's medium supplemented with 2 mM glutamine, 10% fetal bovine serum, 1× NEAA, b-ME, 1×pen/strep, and 25 mM HEPES in 175 cm^2 culture flasks. For all optical assays, the cells were seeded at ˜20,000/well in 384-well Matrigel-coated plates. For the correction assays, the cells are cultured at 37° C. with and without compounds for 16-24 hours.

CFTR [2] = target: T1, CFTR; assay: Membrane potential dye, Enteroid Assay B; settings: Table 9
In short: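 Fluorescence read over 15 min after chloride-free stimulation (10 μM forskolin, 100 μM IBMX, 300 nM Compound III) gave chloride transport, reported as % activity versus a triple-corrector/potentiator control. Beforehand, human enteroid cells had 18-24 h compound exposure at 37° C and 25 min methyl oxonol dye loading at room temperature.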

[3] = Table 7, human enteroid cells, 18-24 hours, acute 10 μM forskolin and 300 nM ivacaftor
[4] = Table 6, human enteroid cells, 18-24 hours, acute 10 μM forskolin and 300 nM ivacaftor

T2 sequence (P13569 with tags, fused parts or gaps DEL508-508): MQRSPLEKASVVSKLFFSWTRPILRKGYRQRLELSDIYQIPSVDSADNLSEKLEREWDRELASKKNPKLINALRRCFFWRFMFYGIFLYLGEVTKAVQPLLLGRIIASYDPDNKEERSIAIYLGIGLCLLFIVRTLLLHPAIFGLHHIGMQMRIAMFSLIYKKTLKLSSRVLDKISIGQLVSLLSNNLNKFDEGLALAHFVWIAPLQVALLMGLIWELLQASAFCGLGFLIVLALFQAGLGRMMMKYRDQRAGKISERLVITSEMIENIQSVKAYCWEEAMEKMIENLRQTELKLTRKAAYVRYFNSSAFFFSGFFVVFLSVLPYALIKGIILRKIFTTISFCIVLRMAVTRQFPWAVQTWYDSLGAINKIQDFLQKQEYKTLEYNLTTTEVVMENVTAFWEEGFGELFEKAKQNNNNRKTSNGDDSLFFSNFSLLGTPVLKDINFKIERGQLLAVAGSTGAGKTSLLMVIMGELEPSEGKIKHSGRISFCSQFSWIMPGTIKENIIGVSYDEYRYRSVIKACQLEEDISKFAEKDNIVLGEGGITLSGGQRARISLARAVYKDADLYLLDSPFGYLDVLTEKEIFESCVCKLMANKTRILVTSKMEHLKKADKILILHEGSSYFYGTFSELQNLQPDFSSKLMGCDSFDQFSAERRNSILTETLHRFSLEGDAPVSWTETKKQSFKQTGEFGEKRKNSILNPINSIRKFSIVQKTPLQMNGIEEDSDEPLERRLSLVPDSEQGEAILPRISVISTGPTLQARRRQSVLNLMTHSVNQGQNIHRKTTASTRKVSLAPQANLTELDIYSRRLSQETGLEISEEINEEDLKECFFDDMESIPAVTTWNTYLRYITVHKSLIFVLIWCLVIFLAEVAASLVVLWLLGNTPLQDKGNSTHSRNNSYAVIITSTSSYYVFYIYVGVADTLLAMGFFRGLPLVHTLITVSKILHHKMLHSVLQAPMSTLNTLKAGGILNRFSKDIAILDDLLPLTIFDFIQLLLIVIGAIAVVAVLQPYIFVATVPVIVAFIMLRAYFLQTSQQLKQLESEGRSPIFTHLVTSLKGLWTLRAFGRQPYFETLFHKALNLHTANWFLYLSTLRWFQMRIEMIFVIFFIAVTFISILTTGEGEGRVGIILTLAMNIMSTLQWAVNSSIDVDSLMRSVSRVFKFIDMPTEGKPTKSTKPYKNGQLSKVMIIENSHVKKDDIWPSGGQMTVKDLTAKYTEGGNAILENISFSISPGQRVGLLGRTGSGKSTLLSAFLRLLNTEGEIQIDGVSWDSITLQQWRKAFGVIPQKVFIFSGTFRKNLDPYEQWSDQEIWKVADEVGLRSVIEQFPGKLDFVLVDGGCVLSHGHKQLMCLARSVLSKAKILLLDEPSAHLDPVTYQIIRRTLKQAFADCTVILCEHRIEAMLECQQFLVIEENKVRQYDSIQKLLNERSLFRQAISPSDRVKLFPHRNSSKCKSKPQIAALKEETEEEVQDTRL
T1 sequence (P13569 with tags, fused parts or gaps DEL508-508): as above

| SMILES | Ent. A Max Activity (CFTR [1]; Table 7) | EC50 (CFTR [1]; [3]) [nM] | Emax (F508del; Table 7) [%] | EC50 (F508del; Table 7) [nM] | Ent. A Max Activity (CFTR [1]; Table 6) | EC50 (CFTR [1]; [4]) [nM] | Emax (F508del; Table 6) [%] | EC50 (F508del; Table 6) [nM] | other results |
| --- | --- | --- | --- | --- | --- | --- | --- | --- | --- |
| Cc1cccc(C)c1-c1cc2nc(n1)NS(=O)(=O)c1cccc(c1)CN(CCC(F)(F)F)[C@H](CC(C)C)CO2 [Compound 1021] | ++ (++ is 30-60%) | < 1000 | > 60 | < 1000 | – | – | – | – | – |
| Cc1cccc(C)c1-c1cc2nc(n1)NS(=O)(=O)c1cccc(c1)CN(Cc1cccc3c1OC(F)(F)O3)[C@H](CC(C)C)CO2 [Compound 1029] | ++ (++ is 30-60%) | < 1000 | > 60 | < 1000 | – | – | – | – | – |
| Cc1cccc(C)c1-c1cc2nc(n1)NS(=O)(=O)c1cccc(c1)C(=O)N(C)C[C@@H](c1ccc(C(C)(C)C)cn1)O2 (single isomer, unassigned) [Compound 102, 10-(5-tert-butyl-2-pyridyl)-6-(2,6-dimethylphenyl)-12-methyl-2,2-dioxo-9-oxa-2λ^6-thia-3,5,12,19-tetrazatricyclo[12.3.1.14,8]nonadeca-1(18),4(19),5,7,14,16-hexaen-13-one] | + (+ is <30%) | 1000 to 3000 | > 60 | < 1000 | – | – | – | – | – |
| Cc1cccc(C)c1-c1cc2nc(n1)NS(=O)(=O)c1cccc(c1)C(=O)N(Cc1ccc(N3CCCCC3)nc1)[C@H](CC(C)C)CO2 [Compound 974] | +++ (+++ is >60%) | < 1000 | > 60 | < 1000 | – | – | – | – | – |
| Cc1cccc(C)c1-c1cc2nc(n1)NS(=O)(=O)c1cccc(c1)C(=O)N(CCC(C)C)[C@H](CCC1(C(F)(F)F)CC1)CO2 [Compound 850] | – | – | – | – | +++ (+++ is >60%) | < 1000 | > 60 | < 1000 | – |
| Cc1cccc(C)c1-c1cc2nc(n1)NS(=O)(=O)c1cccc(c1)CN(Cc1cnn(-c3ccccc3)c1C)[C@H](CC(C)C)CO2 [Compound 1026] | +++ (+++ is >60%) | < 1000 | > 60 | < 1000 | – | – | – | – | – |
| Cc1cccc(C)c1-c1cc2nc(n1)NS(=O)(=O)c1cccc(c1)C(=O)N(C)[C@H](CC(C)C)CO2 [Compound 71, (11R)-6-(2,6-Dimethylphenyl)-12-methyl-11-(2-methylpropyl)-9-oxa-2λ^6-thia-3,5,12,19-tetraazatricyclo[12.3.1.14,8]nonadeca-1(18),4(19),5,7,14,16-hexaene-2,2,13-trione] | – | – | – | – | +++ (+++ is >60%) | < 1000 | > 60 | < 1000 | – |
| Cc1cccc(C)c1-c1cc2nc(n1)NS(=O)(=O)c1cccc(c1)C(=O)N(CCC1CCN(C)CC1)[C@H](CC(C)C)CO2 [Compound 418] | – | – | – | – | +++ (+++ is >60%) | < 1000 | > 60 | < 1000 | – |
| Cc1cccc(C)c1-c1cc2nc(n1)NS(=O)(=O)c1cccc(c1)C(=O)N(C)C[C@H](c1ccc(C3CC3)cc1)O2 [Compound 669] | ++ (++ is 30-60%) | < 1000 | > 60 | < 1000 | – | – | – | – | – |
| Cc1cccc(C)c1-c1cc2nc(n1)NS(=O)(=O)c1cccc(c1)C(=O)N(C)[C@H](C)[C@H](c1ccc(C(C)(C)C)cc1)O2 [Compound 338] | – | – | – | – | + (+ is <30%) | – | > 60 | < 1000 | – |
| Cc1cccc(C)c1-c1cc2nc(n1)NS(=O)(=O)c1cccc(c1)C(=O)N(Cc1ccccc1)CC(c1ccccc1)O2 (stereo in doubt) [Compound 18, (10R)-12-Benzyl-6-(2,6-dimethylphenyl)-2,2-dioxo-10-phenyl-9-oxa-2λ^6-thia-3,5,12,19-tetrazatricyclo[12.3.1.14,8]nonadeca-1(18),4(19),5,7,14,16-hexaen-13-one] | – | – | – | – | +++ (+++ is >60%) | < 1000 | > 60 | < 1000 | – |
| Cc1cccc(C)c1-c1cc2nc(n1)NS(=O)(=O)c1cccc(c1)CN(Cc1ccnnc1)[C@H](CC(C)C)CO2 [Compound 47, (11R)-6-(2,6-dimethylphenyl)-11-(2-methylpropyl)-12-[(pyridazin-4-yl)methyl]-9-oxa-2λ^6-thia-3,5,12,19-tetraazatricyclo[12.3.1.14,8]nonadeca-1(17),4,6,8(19),14(18),15-hexaene-2,2-dione] | +++ (+++ is >60%) | < 1000 | > 60 | < 1000 | – | – | – | – | – |
| Cc1cccc(C)c1-c1cc2nc(n1)NS(=O)(=O)c1cccc(c1)C(=O)N(CCC(C)(C)C)C(C(F)(F)F)CO2 (centres unmarked) [Compound 373] | – | – | > 60 | 1000 to 3000 | – | – | – | – | – |
| CCN1C(=O)c2cccc(c2)S(=O)(=O)Nc2nc(cc(-c3c(C)cccc3C)n2)O[C@@H]2CN(C3CC4(CCCC4)C3)C[C@H]21 [Compound 1192, (3R,7R)-19-(2,6-Dimethylphenyl)-8-ethyl-5-{spiro[3.4]octan-2-yl}-2-oxa-15λ^6-thia-5,8,16,18,21-pentaazatetracyclo[15.3.1.110,14.03,7]docosa-1(20),10(22),11,13,17(21),18-hexaene-9,15,15-trione] | – | – | – | – | – | – | – | – | Ent. A Max Activity (%) (CFTR [1]; Table 9): +++ (+++ is >600%); EC50 (CFTR [1]; Table 9): < 1000 nM; Ent. B Max Activity (%) (CFTR [2]): ++ (++ is 30-60%); EC50 (CFTR [2]; read-out: Ent. B EC50): < 1000 nM |

The next lines start with results.

| Ent. A Max Activity (CFTR [1]; Table 7) | EC50 (CFTR [1]; [3]) [nM] | Emax (F508del; Table 7) [%] | EC50 (F508del; Table 7) [nM] | Ent. A Max Activity (CFTR [1]; Table 6) | EC50 (CFTR [1]; [4]) [nM] | Emax (F508del; Table 6) [%] | EC50 (F508del; Table 6) [nM] | SMILES | other results |
| --- | --- | --- | --- | --- | --- | --- | --- | --- | --- |
| ++ (++ is 30-60%) | < 1000 | > 60 | < 1000 | – | – | – | – | Cc1cccc(C)c1-c1cc2nc(n1)NS(=O)(=O)c1cccc(c1)CN(CCCC1(C(F)(F)F)CC1)[C@H](CC(C)C)CO2 [Compound 1023] | – |
| – | – | – | – | +++ (+++ is >60%) | < 1000 | > 60 | < 1000 | CCCCCN1C(=O)c2cccc(c2)S(=O)(=O)Nc2nc(cc(-c3c(C)cccc3C)n2)OC[C@H]1CC(C)C [Compound 362] | – |
| – | – | – | – | +++ (+++ is >60%) | 3000 to 30000 | > 60 | < 1000 | Cc1cccc(C)c1-c1cc2nc(n1)NS(=O)(=O)c1cccc(c1)NC(=O)CN(C(=O)OC(C)(C)C)CCO2 [Compound 516] | – |
| – | – | > 60 | < 1000 | – | – | – | – | Cc1cccc(C)c1-c1cc2nc(n1)NS(=O)(=O)c1cccc(c1)C(=O)N(C)C[C@@H](c1ccc(C3CC3)cc1)O2 [Compound 668] | – |
| +++ (+++ is >60%) | < 1000 | > 60 | < 1000 | – | – | – | – | Cc1cccc(C)c1-c1cc2nc(n1)NS(=O)(=O)c1cccc(c1)C(=O)N(C)C[C@H](c1ccc(C(C)(C)C)cc1)O2 (single isomer, unassigned) [Compound 11, 10-(4-tert-Butylphenyl)-6-(2,6-dimethylphenyl)-12-methyl-2,2-dioxo-9-oxa-2λ^6-thia-3,5,12,19-tetrazatricyclo[12.3.1.14,8]nonadeca-1(18),4(19),5,7,14,16-hexaen-13-one] | – |
| – | – | – | – | +++ (+++ is >60%) | < 1000 | > 60 | < 1000 | CCCCCCCCN1C(=O)c2cccc(c2)S(=O)(=O)Nc2nc(cc(-c3c(C)cccc3C)n2)OC[C@H]1CC(C)C [Compound 361] | – |
| – | – | – | – | +++ (+++ is >60%) | < 1000 | > 60 | < 1000 | Cc1cccc(C)c1-c1cc2nc(n1)NS(=O)(=O)c1cccc(c1)C(=O)N(Cc1ccccc1)CC(Cc1ccccc1)O2 (stereo in doubt) [Compound 106, (10R)-10,12-dibenzyl-6-(2,6-dimethylphenyl)-9-oxa-2λ^6-thia-3,5,12,19-tetraazatricyclo[12.3.1.14,8]nonadeca-1(17),4(19),5,7,14(18),15-hexaene-2,2,13-trione] | – |
| – | – | – | – | ++ (++ is 30-60%) | < 1000 | > 60 | < 1000 | Cc1cccc(C)c1-c1cc2nc(n1)NS(=O)(=O)c1cccc(c1)C(=O)N(C)[C@H](C)[C@@H](c1ccc(C(C)(C)C)cc1)O2 [Compound 339] | – |
